Article PMC6679423 (International Journal of Molecular Sciences, 2019)

System: human recombinant CYP3A5
Assay: Vandetanib oxidation by human recombinant CYP3A5 (Supersomes)
Format: in vitro ADME
Experimental: Vandetanib was from LC Laboratories (Woburn, MA, USA). Ketoconazole, NADPH, methimazol and other chemicals were all purchased from Sigma-Aldrich (St. Louis, MO, USA). The purity of all chemicals met the standards of American Chemical Society, unless noted otherwise. All animal experiments were conducted in accordance with the Regulations for the Care and Use of Laboratory Animals (311/1997, Ministry of Agriculture, Czech Republic), which follows the Declaration of Helsinki. Male Wistar rats (~125–150 g; AnLab, Czech Republic), male C57BL/6 mice ([…]; CXR Bioscience Ltd., Dundee, UK), and male New Zealand rabbits (2.5–3 kg; AnLab, Czech Republic) were employed as animal models. Animals were placed in cages in temperature- and humidity-controlled rooms, acclimatized for five days and maintained at 22 °C with a 12 h light/dark period. Standardized diet and water were provided ad libitum. Rats, mice and rabbits used to prepare microsomal fraction from untreated animals were sacrificed by cervical dislocation, livers snap-frozen in liquid nitrogen and stored at −80 °C until further processing (see below). […] Protein concentrations in the microsomal fractions were assessed using the bicinchoninic acid protein assay with bovine serum albumin as a standard. […]

COc1cc2c(Nc3ccc(Br)cc3F)ncnc2cc1OCC1CCNCC1 [N-desmethylvandetanib]
fold increase of N-desmethylvandetanib formation by cytochrome b5 (CYP3A5 with vs without cytochrome b5): 7 fold | contribution of CYP3A5 to N-desmethylvandetanib formation in human liver (without consideration of cytochrome b5): < 0.3%
